Measured values from ChEMBL document CHEMBL1157064, “Homoisoflavonoids from the fibrous roots of Polygonatum odoratum with glucose uptake-stimulatory activity in 3T3-L1 adipocytes” (J Nat Prod, 2010).
Active and inactive are the calls of the source. No cut-off for these calls is given here.

These compounds were tested on 3T3-L1 (assay: Increase in insulin-stimulated [3H]2-deoxy-D-glucose uptake in mouse 3T3L1cells at 1 uM after 3 days by liquid scintillation counting relative to insulin).
Assay type: functional, cell-based

Q: For `Cc1c(O)c(C)c2c(c1O)C(=O)/C(=C/c1ccc(O)cc1)CO2`, which Activity is on record?
A: Active

Q: `COc1c(O)c(C)c(O)c2c1OC[C@@H](Cc1ccc(O)cc1)C2=O` was tested. Which Activity did it give?
A: Active

Q: Which Activity does the source give for `COc1ccc(C[C@@H]2COc3c(C)c(O)c(C)c(O)c3C2=O)cc1` here?
A: Active

Q: `COc1ccc(CC2COc3c(C)c(O)c(C)c(O)c3C2=O)cc1O` (racemic) was tested. Which Activity did it give?
A: Active

Q: How did the Activity turn out when `COc1ccc(CC2COc3c(OC)c(O)c(C)c(O)c3C2=O)c(O)c1` (racemic) was run?
A: Active

Q: For `COc1ccc([C@@H]2CC(=O)c3c(O)cc(O[C@@H]4O[C@H](CO[C@@H]5O[C@@H](C)[C@H](O)[C@@H](O)[C@H]5O)[C@@H](O)[C@H](O)[C@H]4O)cc3O2)cc1O`, which Activity is on record?
A: Active

Q: How did the Activity turn out when `COc1ccc(C[C@@H]2COc3c(OC)c(O)c(C)c(O)c3C2=O)cc1` was run?
A: Active

Q: With `COc1ccc(CC2COc3c(C)c(O)c(C)c(O)c3C2=O)c(O)c1` (racemic) as the compound, how does the Activity read?
A: Active

Q: How did the Activity turn out when `O=C1/C(=C/c2ccc(O)cc2)COc2cc(O[C@@H]3O[C@H](CO)[C@@H](O)[C@H](O)[C@H]3O)cc(O)c21` was run?
A: Active

Q: Which Activity does the source give for `COc1c(O[C@@H]2O[C@H](CO)[C@@H](O)[C@H](O)[C@H]2O)cc2occ(-c3ccc(O)cc3)c(=O)c2c1O` here?
A: Active

Q: With `Cc1c(O)c(C)c2c(c1O)C(=O)[C@H](Cc1ccc(O)cc1)CO2` as the compound, how does the Activity read?
A: Active
